Test results: patent US8901074B2, “Methods of treating autoimmune diseases of the central nervous system (CNS) and neurodegenerative diseases” (Ramot at Tel-Aviv University, priority 2010, dated 2014)
Where no end group is shown, it is not given here.

Columns and labels:
[1] = target: T1, insulin degrading enzyme (IDE) (Homo sapiens, UniProt P14735); test: IDE enzymatic activity inhibition; type: biochemical
T1 sequence (P14735 1-1019): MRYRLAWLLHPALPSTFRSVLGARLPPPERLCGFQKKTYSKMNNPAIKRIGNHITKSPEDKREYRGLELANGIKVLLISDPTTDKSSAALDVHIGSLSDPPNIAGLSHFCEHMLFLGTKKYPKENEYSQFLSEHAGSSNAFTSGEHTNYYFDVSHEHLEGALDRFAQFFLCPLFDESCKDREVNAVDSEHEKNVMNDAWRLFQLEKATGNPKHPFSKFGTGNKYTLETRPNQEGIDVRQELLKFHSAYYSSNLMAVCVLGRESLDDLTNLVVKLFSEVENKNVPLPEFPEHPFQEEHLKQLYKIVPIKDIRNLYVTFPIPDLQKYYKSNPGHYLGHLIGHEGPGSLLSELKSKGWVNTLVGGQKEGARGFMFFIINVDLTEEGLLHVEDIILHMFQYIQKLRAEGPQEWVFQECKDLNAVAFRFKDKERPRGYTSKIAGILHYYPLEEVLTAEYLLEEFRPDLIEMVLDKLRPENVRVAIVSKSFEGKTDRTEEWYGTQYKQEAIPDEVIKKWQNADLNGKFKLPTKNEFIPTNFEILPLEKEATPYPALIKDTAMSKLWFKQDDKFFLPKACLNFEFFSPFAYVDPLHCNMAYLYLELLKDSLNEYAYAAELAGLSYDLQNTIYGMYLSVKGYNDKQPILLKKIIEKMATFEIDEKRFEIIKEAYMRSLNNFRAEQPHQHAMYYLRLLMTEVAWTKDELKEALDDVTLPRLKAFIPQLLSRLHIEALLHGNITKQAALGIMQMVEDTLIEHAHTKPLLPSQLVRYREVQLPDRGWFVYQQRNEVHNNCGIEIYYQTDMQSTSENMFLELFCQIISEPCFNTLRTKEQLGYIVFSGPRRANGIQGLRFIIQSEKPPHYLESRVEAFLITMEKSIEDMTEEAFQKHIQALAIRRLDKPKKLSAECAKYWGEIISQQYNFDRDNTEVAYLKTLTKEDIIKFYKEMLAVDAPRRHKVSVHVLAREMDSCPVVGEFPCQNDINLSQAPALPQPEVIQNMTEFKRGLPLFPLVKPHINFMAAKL
Protocol: The IDE inhibitor of the present teachings specifically down-regulates the enzymatic activity of IDE. For instance, the IC50 of IDE is in the range of 10-200 nM as assayed for ADT-21. According to exemplary embodiments, the IDE inhibitor of the present invention is capable of down-regulating by at least 5%, at least 10%, at least 15%, at least 20%, at least 30%, at least 40%, at least 50%, at least 60%, at least 70%, at least 80%, at least 90% or at least 100% the enzymatic activity of IDE.
Any method known in the art for measuring IDE activity may be used to assess down-regulation in IDE. For example, one method which may be used comprises the use of an Insulysin/IDE Immunocapture Activity Assay Kit (available e.g. from InnoZyme™, Calbiochem). Using this kit ELISA plates are first coated with the target enzyme (i.e. IDE) and then the plates are incubated with a substrate (e.g. insulin). The enzymatic activity is measured in comparison to wells without the substrate using for example a FRET substrate, Mca-GGFLRKHGQ-EDDnp (SEQ ID NO: 79). Cleavage of the scissile amide bond between R and K releases the fluorophore from the quenching molecule, Dnp, resulting in an increase in fluorescence. The increase in fluorescence is measured using an excitation wavelength of 320 nm and an emission wavelength of 405 nm.

[2] = Toxicity monitoring (body weight, eating habits, tail tone, mobility) in APP mice; type: in vivo; settings: 1.07 μg/mouse every other day for 4 months
Protocol: 8-week-old APP/PSI mice were used as previously described (Oakley et al 2006, J Neurosci 26: 10129-10140). Mice were treated with either ADT21 (1.07 μg/mouse) or PBS every other day for 4 months.
Contextual fear conditioning was tested as described previously (Carlos A. et al., 2005) Mice were placed within the conditioning chamber (Coulbourn Instruments, Allentown, Pa.) (7″W×7″D×12″H) for 3 min before the onset of the unconditioned stimulus (US; footshock; 1 s/1 mA) through the cage grid floor (Model H10-11M-TC-SF) from a Coulbourn Instruments shocker (Model H13-15). Activation was detected via a camera above the cage (ACT-VP-01) with a special algorithm for motion detection, to allow them to develop a representation of the context via exploration. After the shock, mice were left in the chamber for 2 min (immediate freezing) and returned to their home cages. 24 hours after the training session, the mice were again placed in the chamber and tested for 4 min without any footshocks. The chamber was isolated in a quiet environment using the noise sealed box (H10-24T Coulbourn Instruments). Freezing response was scored by using the FreezeFrame automated system (Coulbourn Instruments). Furthermore, mice were daily monitored for body weight, eating habits, tail tone and mobility.

In the case of ITNPGSGGSSVLRYDDFHTD [ADT21], the IC50 [1] is reported as 10 to 200 nM and the “changes in behavior indicating toxicity (body weight, eating habits, tail tone, mobility)” value [2] is reported as “no changes in their behavior”.
